One test concerns the target Insulin Receptor Kinase (Homo sapiens, UniProt P06213). Description: Kinase Selectivity Assay Insulin Receptor Kinase. In kind it is biochemical. The following applies: Kinase Selectivity, Tables 2a-2k; read-out: Insulin R Kinase IC50. A digest of the protocol: (§1)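 Radiometric Flashplate format: ^33P-γ-ATP transfer to immobilized biotinylated peptide, 1 h, 30° C, 1% DMSO final, enzyme in 50 mM Tris-HCl pH=8.0 + 0.1% BSA. Duplicate 8-point dilution, 100 uM down to 10 pM. IC50 from % inhibition of plate max signal versus log conc.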

The test system of test [1] is HeLa cervical adenocarcinoma. The experiment in a line: Inhibition of Cell Proliferation (14C-thymidine incorporation), HeLa. The following applies: Homo sapiens, HeLa cell line. In kind it is cell-based. On the procedure:
The ability of a test compound to inhibit the proliferation of cell growth was determined by measuring incorporation of ^14C-labelled thymidine into newly synthesized DNA within the cells. This method was used on cell lines derived from carcinomas originating from several tissues such as HeLa cervical adenocarcinoma (American Type Culture Collection (ATCC), Virginia, Cat. #CCL-2), A375 malignant melanoma (ATCC CRL-1619), SK-OV-3 ovarian adenocarcinoma (ATCC HTB-77) HCT-116 colon carcinoma (CCL-247), PC-3 prostate adenocarcinoma (ATCC CRL-1435), and MDA-MB-231 (Xenogen Corp.) In this way the effect of a compound on cell growth of cells with many different phenotypes can be determined. Cells were trypsinized and counted and 3000-8000 cells were added to each well of a 96-well CytoStar tissue culture treated scintillating microplate (Amersham #RPNQ0160) in complete medium in a volume of 100 μl. Cells were incubated for 24 hours in complete medium at 37° C. in an atmosphere containing 5% CO2. Next, 1 μl of test compound in 100% DMSO was added to the wells of the plate. DMSO only was added to control wells. Cells were incubated for 24 more hours in complete medium at 37° C. in an atmosphere containing 5% CO2. Methyl ^14C-thymidine 56 mCi/mmol (NEN #NEC568 or Amersham #CFA532) was diluted in complete medium and 0.2 uCi/well was added to each well of the CytoStar plate in a volume of 20 μl. The plate was incubated for 24 hours at 37° C. plus 5% CO2 in drug plus ^14C-thymidine. The contents of the plate were discarded into a ^14C radioactive waste container by inverting the plate and the plate was washed twice with 200 μl PBS. 200 μl of PBS is added to each well. The top of the plate was sealed with a transparent plate sealer and a white plate backing sealer (Packard #6005199) was applied to the bottom of the plate. The degree of methyl ^14C-thymidine incorporation was quantified on a Packard Top Count.

The target of test [2] is T1, Calmodulin Kinase (calmodulin-dependent protein kinase 2) (Rattus norvegicus, UniProt P11275).
T1 construct: a truncated version of the alpha subunit of the rat protein; purchased New England Biolabs 6060; host or cells: insect cells
Description: Kinase Selectivity Assay Calmodulin Kinase. Format: biochemical. The following applies: Kinase Selectivity, Tables 2a-2k; read-out: Calmodulin Kinase 2 IC50. A digest of the protocol: as §1

Test [3] concerns the target T2, Glycogen Synthase Kinase-3 (beta isoform) (Oryctolagus cuniculus, UniProt G1T8E2).
T2 construct: purchased New England Biolabs 6040; host or cells: E. coli
Description: Kinase Selectivity Assay Glycogen Synthase Kinase-3. Format: biochemical, rabbit. Summed up: as §1

Test [4] deals with T3, Casein Kinase 2 (alpha and beta subunits) (Homo sapiens, UniProt P68400).
T3 construct: purchased New England Biolabs 6010; host or cells: E. coli
T3 sequence (P68400 whole entry): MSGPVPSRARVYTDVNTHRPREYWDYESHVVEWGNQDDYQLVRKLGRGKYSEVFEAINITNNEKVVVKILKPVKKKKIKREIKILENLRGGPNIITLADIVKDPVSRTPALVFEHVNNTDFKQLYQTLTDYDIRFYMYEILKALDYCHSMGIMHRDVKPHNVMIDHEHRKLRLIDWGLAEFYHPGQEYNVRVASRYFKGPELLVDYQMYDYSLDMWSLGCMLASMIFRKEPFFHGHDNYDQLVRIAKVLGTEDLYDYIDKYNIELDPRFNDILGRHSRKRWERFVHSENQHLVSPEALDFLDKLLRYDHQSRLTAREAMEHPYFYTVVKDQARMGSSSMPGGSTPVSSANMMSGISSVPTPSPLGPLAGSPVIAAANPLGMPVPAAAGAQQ
T3 sequence (P67870 whole entry partner): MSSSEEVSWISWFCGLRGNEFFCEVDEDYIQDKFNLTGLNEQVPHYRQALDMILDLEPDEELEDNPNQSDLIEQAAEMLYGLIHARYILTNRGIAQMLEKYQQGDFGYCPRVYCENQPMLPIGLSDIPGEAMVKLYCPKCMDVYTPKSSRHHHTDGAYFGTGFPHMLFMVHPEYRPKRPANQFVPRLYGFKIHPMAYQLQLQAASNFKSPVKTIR
Description: Kinase Selectivity Assay Casein Kinase 2. Format: biochemical. The following applies: Kinase Selectivity, Tables 2a-2k; read-out: Caseine Kinase 2 IC50. Summed up:
as §1

Another test has as its target T4, Protein Kinase A (Bos taurus, UniProt P00517).
T4 construct: purified from bovine heart; purchased Upstate Biotech 14-114; host or cells: bovine heart
Description: Kinase Selectivity Assay Protein Kinase A. In kind it is biochemical, bovine. The following applies: Kinase Selectivity, Tables 2a-2k; read-out: PKA IC50. Summed up: as §1

Test [5] has as its target T5, MAP Kinase (ERK-2 isoform) (Rattus norvegicus, UniProt P63086).
T5 construct: polyhistidine (N); host or cells: E. coli
The experiment in a line: Kinase Selectivity Assay MAP Kinase (ERK-2). In kind it is biochemical. The following applies: Kinase Selectivity, Tables 2a-2k; read-out: ERK 2 IC50. A digest of the protocol:
as §1

Test [6] addresses T6, PDGF-R (platelet derived growth factor receptor) beta subunit kinase domain (Homo sapiens, UniProt P09619).
T6 construct: nucleotides 1874-3507 of the human PDGF-R beta subunit kinase domain; polyhistidine (N)
Description: Kinase Selectivity Assay PDGF-R. The following applies: Kinase Selectivity, Tables 2a-2k; read-out: PDGF-R kinase IC50. In kind it is biochemical. A digest of the protocol:
as §1

[7] abbreviates: Kinase Selectivity, Tables 2a-2k, read-out: GSK-3 IC50.

pIC50: −log10 of the molar value. Like-named read-outs stand apart in the source and are kept apart here.

T2 sequence (G1T8E2 1-432): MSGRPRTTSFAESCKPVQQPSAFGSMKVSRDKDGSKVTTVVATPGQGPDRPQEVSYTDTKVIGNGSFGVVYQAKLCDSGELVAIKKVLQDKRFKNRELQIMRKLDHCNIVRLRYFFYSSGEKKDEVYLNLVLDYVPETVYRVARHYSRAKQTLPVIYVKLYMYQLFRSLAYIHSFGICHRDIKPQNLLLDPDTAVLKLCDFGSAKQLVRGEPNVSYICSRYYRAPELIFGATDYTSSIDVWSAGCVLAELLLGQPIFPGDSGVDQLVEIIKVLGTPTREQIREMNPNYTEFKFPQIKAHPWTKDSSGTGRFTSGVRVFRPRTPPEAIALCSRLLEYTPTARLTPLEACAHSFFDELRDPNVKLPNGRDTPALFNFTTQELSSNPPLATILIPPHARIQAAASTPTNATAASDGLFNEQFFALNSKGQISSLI
Sequence of Insulin Receptor Kinase (P06213 980-1352): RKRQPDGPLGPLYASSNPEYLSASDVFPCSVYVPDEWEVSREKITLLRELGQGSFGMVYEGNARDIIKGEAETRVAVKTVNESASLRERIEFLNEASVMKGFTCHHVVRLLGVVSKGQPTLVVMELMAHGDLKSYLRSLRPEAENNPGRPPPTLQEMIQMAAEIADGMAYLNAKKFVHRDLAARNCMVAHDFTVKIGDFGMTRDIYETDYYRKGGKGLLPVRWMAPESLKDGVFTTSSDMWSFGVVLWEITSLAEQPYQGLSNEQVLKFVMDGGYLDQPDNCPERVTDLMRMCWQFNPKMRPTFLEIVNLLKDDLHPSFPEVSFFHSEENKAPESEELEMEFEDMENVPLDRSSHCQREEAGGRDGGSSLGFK
T6 sequence (P09619 564-1106): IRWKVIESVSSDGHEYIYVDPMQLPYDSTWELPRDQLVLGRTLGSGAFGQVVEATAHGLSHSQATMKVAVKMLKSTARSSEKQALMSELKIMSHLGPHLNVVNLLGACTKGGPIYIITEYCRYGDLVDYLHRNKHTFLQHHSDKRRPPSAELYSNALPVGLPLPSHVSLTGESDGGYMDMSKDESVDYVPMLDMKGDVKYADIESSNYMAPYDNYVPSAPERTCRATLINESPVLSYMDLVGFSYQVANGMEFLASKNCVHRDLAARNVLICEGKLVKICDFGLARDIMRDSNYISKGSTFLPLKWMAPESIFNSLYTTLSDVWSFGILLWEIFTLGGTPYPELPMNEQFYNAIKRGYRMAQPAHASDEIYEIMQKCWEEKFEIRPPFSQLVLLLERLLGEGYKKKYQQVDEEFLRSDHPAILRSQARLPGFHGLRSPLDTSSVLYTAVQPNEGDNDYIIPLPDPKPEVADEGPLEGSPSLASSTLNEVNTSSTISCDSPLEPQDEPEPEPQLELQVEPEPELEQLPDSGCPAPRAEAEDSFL
T5 sequence (P63086 whole entry, canonical isoform): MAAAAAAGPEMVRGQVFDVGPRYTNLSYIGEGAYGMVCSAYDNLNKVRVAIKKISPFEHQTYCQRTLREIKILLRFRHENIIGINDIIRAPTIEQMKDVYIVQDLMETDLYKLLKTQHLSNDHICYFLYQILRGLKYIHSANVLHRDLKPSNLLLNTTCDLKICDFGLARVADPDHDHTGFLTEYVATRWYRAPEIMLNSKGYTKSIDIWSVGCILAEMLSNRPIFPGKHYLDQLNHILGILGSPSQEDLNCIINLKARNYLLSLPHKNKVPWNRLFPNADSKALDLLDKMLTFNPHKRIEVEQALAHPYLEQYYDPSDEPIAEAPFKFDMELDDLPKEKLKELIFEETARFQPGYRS

`Nc1nc(Nc2ccc(S(N)(=O)=O)cc2)nn1C(=O)c1c(F)cccc1F` [Cpd 1, 4-[[5-amino-1-(2,6-difluorobenzoyl)-1H-1,2,4-triazol-3-yl]amino]-benzenesulfonamide]: the pIC50 is less than 4.00 on Insulin Receptor Kinase; less than 4.00 in test [2]; 7.39 in test [3]; less than 4.00 in test [4]; less than 4.00 on Protein Kinase A. The compound also yielded an IC50 in test [1] of 284 nM.
`Nc1nc(Nc2ccc(S(N)(=O)=O)cc2)nn1C(=O)c1cccs1` [Cpd 14, 4-[[5-amino-1-(2-thienylcarbonyl)-1H-1,2,4-triazol-3-yl]amino]-benzenesulfonamide]: the pIC50 in test [5] is 5.67; in test [6], 6.72; on Insulin Receptor Kinase, 5.92; in test [2], 4.22; in test [3] (setting [7]), 8.52; in test [4], 5.09. Besides, the negative-log IC50 (pIC50) on Protein Kinase A was 5.27. For the same compound, in test [1], half-maximal inhibition (IC50) was put at 550 nM.
For `Nc1nc(Nc2ccc(S(N)(=O)=O)cc2)nn1C(=O)c1sccc1F` [Cpd 16, 4-[[5-amino-1-[(3-fluoro-2-thienyl)carbonyl]-1H-1,2,4-triazol-3-yl]amino]-benzenesulfonamide], the pIC50 is 6.41 in test [5]; 7.00 in test [6]; less than 4.00 at Insulin Receptor Kinase; less than 4.00 in test [2]; 8.40 in test [3] (setting [7]); less than 4.00 in test [4]. In test [1], this compound had an IC50 of 263 nM.
`Nc1nc(Nc2ccc(S(N)(=O)=O)cc2)nn1C(=O)c1sccc1Cl` [Cpd 17, 4-[[5-amino-1-[(3-chloro-2-thienyl)carbonyl]-1H-1,2,4-triazol-3-yl]amino]-benzenesulfonamide]: the negative-log IC50 (pIC50) in test [5] is 5.73; in test [6], 7.09; at Insulin Receptor Kinase, 5.69; in test [2], 5.55; in test [3] (setting [7]), 8.05; in test [4] it was 5.58. Further, the IC50 in test [1] amounted to 215 nM.
Regarding `Nc1nc(Nc2ccc(S(=O)(=O)N3CCCCC3)cc2)nn1C(=O)c1cccs1` [Cpd 23, N^3-[4-(1-piperidinylsulfonyl)phenyl]-1-(2-thienylcarbonyl)-1H-1,2,4-triazole-3,5-diamine], the negative-log IC50 (pIC50) in test [5] is 5.79; in test [6], 6.20; at Insulin Receptor Kinase, less than 4.00; in test [2] it was 4.98; in test [3] (setting [7]), 7.80; in test [4], less than 4.00. At Protein Kinase A, the pIC50 was less than 4.00. The IC50 in test [1] was 1180 nM.
In the case of `Nc1nc(Nc2ccc(S(N)(=O)=O)cc2)nn1C(=O)c1ccsc1` [Cpd 30, 4-[[5-amino-1-(3-thienylcarbonyl)-1H-1,2,4-triazol-3-yl]amino]-benzenesulfonamide], the negative logarithm of the IC50 (pIC50) was 5.23 in test [5]; 6.41 in test [6]; 5.30 at Insulin Receptor Kinase; 4.05 in test [2]; 7.85 in test [3] (setting [7]); 5.12 in test [4]. Further, the IC50 in test [1] was 215 nM.
Regarding `CCc1ccc(C(=O)n2nc(Nc3ccc(S(N)(=O)=O)cc3)nc2N)s1` [Cpd 32, 4-[[5-amino-1-[(5-ethyl-2-thienyl)carbonyl]-1H-1,2,4-triazol-3-yl]amino]-benzenesulfonamide], the pIC50 in test [5] was 6.25; in test [6], 7.13; on Insulin Receptor Kinase it was 6.91; in test [2], less than 4.00; in test [3] (setting [7]), 8.52; in test [4], 6.28. In addition, the pIC50 on Protein Kinase A is less than 4.00. The compound also showed an IC50 in test [1] of 71 nM.
Consider `Cc1nc(C)c(C(=O)n2nc(Nc3ccc(S(N)(=O)=O)cc3)nc2N)s1` [Cpd 34, 4-[[5-amino-1-[(2,4-dimethyl-5-thiazolyl)carbonyl]-1H-1,2,4-triazol-3-yl]amino]-benzenesulfonamide], for which the pIC50 is less than 5.00 in test [5]; 6.53 in test [6]; less than 5.00 at Insulin Receptor Kinase; less than 4.00 in test [2]; 7.82 in test [3] (setting [7]); less than 4.00 in test [4]. Besides, at Protein Kinase A, the pIC50 was less than 4.00. In addition, the IC50 in test [1] stood at 707 nM.
Regarding `Nc1nc(Nc2ccc(S(N)(=O)=O)cc2)nn1C(=O)c1sccc1Br` [Cpd 35, 4-[[5-amino-1-[(3-bromo-2-thienyl)carbonyl]-1H-1,2,4-triazol-3-yl]amino]-benzenesulfonamide], the IC50 in test [1] amounted to 663 nM.
Consider `Nc1nc(Nc2ccc(S(N)(=O)=O)cc2)nn1C(=O)C1CCCC1` [Cpd 38, 4-[[5-amino-1-(cyclopentylcarbonyl)-1H-1,2,4-triazol-3-yl]amino]-benzenesulfonamide], for which the pIC50 in test [5] was 4.62; in test [6] it was 5.20; at Insulin Receptor Kinase, less than 4.00; in test [2] it was less than 4.00; in test [3] (setting [7]) it was 6.91; in test [4], less than 4.00. The pIC50 on Protein Kinase A is less than 4.00. The IC50 in test [1] turned out to be 4560 nM.
Consider `Nc1nc(Nc2ccc(S(N)(=O)=O)cc2)nn1C(=O)C1CCCCC1` [Cpd 39, 4-[[5-amino-1-(cyclohexylcarbonyl)-1H-1,2,4-triazol-3-yl]amino]-benzenesulfonamide], for which the pIC50 was 4.88 in test [5]; 5.40 in test [6]; 4.71 on Insulin Receptor Kinase; less than 4.00 in test [2]; 6.90 in test [3] (setting [7]); less than 4.00 in test [4]. For the same compound, on Protein Kinase A, the pIC50 is less than 4.00. The compound further had an IC50 in test [1] of 270 nM.
For `CC(C)(C)c1ccc(C(=O)n2nc(Nc3ccc(S(N)(=O)=O)cc3)nc2N)s1` [Cpd 51, 4-[[5-amino-1-[[5-(1,1-dimethylethyl)-2-thienyl]carbonyl]-1H-1,2,4-triazol-3-yl]amino]-benzenesulfonamide], the pIC50 in test [5] is 6.03; in test [6], 6.70; at Insulin Receptor Kinase, 7.11; in test [2], 6.09; in test [3] (setting [7]), 7.70; in test [4], 5.75. The pIC50 on Protein Kinase A is 6.04. Besides, in test [1], the IC50 was found to be 220 nM.
Consider `Cc1ccccc1C(=O)n1nc(Nc2ccc(S(N)(=O)=O)cc2)nc1N` [Cpd 57, 4-[[5-amino-1-(2-methylbenzoyl)-1H-1,2,4-triazol-3-yl]amino]-benzenesulfonamide], for which the pIC50 in test [5] was less than 4.00; in test [6], 5.38; on Insulin Receptor Kinase, less than 4.00; in test [2], less than 4.00; in test [3] (setting [7]) it was 7.01; in test [4] it was less than 4.00. For the same compound, the pIC50 on Protein Kinase A was less than 4.00. In test [1], this compound registered an IC50 of 339 nM.
In test [1], `CNS(=O)(=O)c1ccc(Nc2nc(N)n(C(=O)c3c(F)cccc3F)n2)cc1` [Cpd 80, 4-[[5-amino-1-(2,6-difluorobenzoyl)-1H-1,2,4-triazol-3-yl]amino]-N-methyl-benzenesulfonamide] returned an IC50 of 880 nM.
In the case of `Cc1cc(C)c(C(=O)n2nc(Nc3ccc(NS(C)(=O)=O)cc3)nc2N)s1` [Cpd 108, N-[4-[[5-amino-1-[(3,5-dimethyl-2-thienyl)carbonyl]-1H-1,2,4-triazol-3-5 yl]amino]phenyl]-methanesulfonamide], the pIC50 in test [5] was 5.62; in test [6], 6.66; in test [2] it was less than 5.00; in test [3] (setting [7]), 7.64; in test [4], less than 5.00.

By pIC50 is commonly meant the negative decadic logarithm of the IC50, by convention in mol/L. As a reminder, the IC50 is the point on the concentration scale where inhibition reaches its midpoint. The low end stands for inhibition by little substance, the high end for a need for much substance.
